Legend:
[1] = tested on: SARS-CoV-2 M^pro (NanoLuc-nsp4-M^pro fusion protein); type: cell-based
[2] = MTT cell viability assay in Vero E6 cells; type: cell-based; details: African green monkey
SARS-CoV-2 M^pro = SARS-CoV-2 M^pro (Severe acute respiratory syndrome coronavirus 2, UniProt P0DTD1); test: FRET-based SARS-CoV-2 M^pro activity assay in vitro; type: biochemical; details: for Inhibitory effect on M^pro catalytic activity at fixed concentration: 100 μM, cut-off 50% of inhibition
SARS-CoV-2 [3] = test: Plaque reduction assay; type: cell-based, SARS-CoV-2/NL/2020 strain; details: ratio between CC50 and EC50; SARS-CoV-2, Vero E6 cells
[4] = MTT cell viability assay in MRC-5 cells; type: cell-based; details: human
HCoV-229E = test: microbe, parasite or virus in culture; type: cell-based; details: for EC50: Human coronavirus 229E, MRC5, 144 h, read-out: HCoV-229E EC50
HCoV-OC43 = test: Plaque reduction assay against HCoV-OC43 in MRC-5 cells; type: cell-based; details: infected MRC-5 cells
SARS-CoV-2 [5] = test: Virus yield reduction assay of SARS-CoV-2 in Calu-3 cells; type: cell-based; details: MOI 0.01, 36 h p.i., titration on Vero E6

Compound | CC50 at 72 h [2] | IC50 (SARS-CoV-2 M^pro) | Inhibitory effect on M^pro catalytic activity at fixed concentration (SARS-CoV-2 M^pro) | SI, Selectivity Index (SARS-CoV-2 [3]) | other results
CC(C)(C)NC(=O)N[C@H](C(=O)N1C[C@H]2[C@@H]([C@H]1C(=O)NC(CC1CCC1)C(=O)C(N)=O)C2(C)C)C(C)(C)C (stereo partly drawn) [BOC, Boceprevir, reference compound] | > 500 µM | – | – | – | Inhibition of proteolytic cleavage of NanoLuc-nsp4-M^pro in cells [1]: not detected
CCOc1ccc(NC(=O)C(=O)NCCc2csc3nc(-c4cccs4)nn23)cc1 [Compound 1] | > 500 µM | 142 ± 12 µM | exerted an inhibitory effect | >10 | –
CC(NC(=O)C(=O)NCCN1CCOCC1)C(c1cccs1)N1CCN(c2ccccc2)CC1 (stereo not drawn) [Compound 2] | > 500 µM | – | – | >10 | –
CCOc1ccccc1NC(=O)C(=O)NCC(c1cccnc1)N1CCN(c2ccccc2)CC1 (stereo not drawn) [Compound 3] | > 500 µM | – | not a significant inhibitory effect | >40 | CC50 at 72 h [4]: > 500 µM; Activity towards HCoV-229E (HCoV-229E): retained activity; EC50 (HCoV-229E): 34.6 ± 8.5 µM; Activity towards HCoV-OC43 (HCoV-OC43): retained activity
O=C(NCc1ccc(F)cc1)C(=O)NCC(c1cccnc1)N1CCN(c2ccccc2)CC1 (stereo not drawn) [Compound 4] | > 500 µM | – | not a significant inhibitory effect | >24 | CC50 at 72 h [4]: 300 ± 18 µM; Activity towards HCoV-229E (HCoV-229E): retained activity; EC50 (HCoV-229E): 23.8 ± 9.9 µM; Activity towards HCoV-OC43 (HCoV-OC43): retained activity
O=C(Nc1ccc2c(c1)OCO2)c1nnc(C(=O)N2CCCC(C(=O)NCc3ccccc3)C2)s1 (stereo not drawn) [Compound 5] | 207 ± 14 µM | 29 ± 3.7 µM | exerted an inhibitory effect | 29 | CC50 at 72 h [4]: 100 ± 11.9 µM; Activity towards HCoV-229E (HCoV-229E): retained activity; EC50 (HCoV-229E): 10.4 ± 4.1 µM; Activity towards HCoV-OC43 (HCoV-OC43): retained activity; SARS-CoV-2 titers in supernatants of infected and treated Calu-3 cells (SARS-CoV-2 [5]): significantly reduced SARS-CoV-2 titers
CCC(C)C(NC(=O)C1N2C(=O)c3ccccc3C2SC1(C)C)C(=O)NC(CO)C(C)C (stereo not drawn) [Compound 6] | > 500 µM | > 100 µM | not a significant inhibitory effect | – | CC50 at 72 h [4]: > 500 µM; Activity towards HCoV-229E (HCoV-229E): retained activity; EC50 (HCoV-229E): 22.9 ± 4.9 µM; Activity towards HCoV-OC43 (HCoV-OC43): retained activity; SARS-CoV-2 titers in supernatants of infected and treated Calu-3 cells (SARS-CoV-2 [5]): significantly reduced SARS-CoV-2 titers
COc1ccc(C(=O)Nc2ccccc2C(=O)NC(C(=O)Nc2ccccc2)C(C)C)cc1 (stereo not drawn) [Compound 7] | > 500 µM | 111 ± 2.2 µM | exerted an inhibitory effect | >10 | –
CCOC(=O)C(NC(=O)COc1ccccc1)(Nc1nc2ccccc2s1)C(F)(F)F (stereo not drawn) [Compound 8] | 68.8 ± 15.4 µM | – | – | 3 | –
O=C(Nc1ccccc1C(=O)NCc1ccccc1)c1cc(S(=O)(=O)N2CCOCC2)ccc1F [Compound 9] | > 500 µM | – | – | >10 | –
O=C(CCC(=O)NNC(=O)C(c1ccccc1)c1ccccc1)NCc1ccccc1 [Compound 10] | > 500 µM | 128 ± 18.8 µM | exerted an inhibitory effect | >10 | –
CC(=O)NCC(=O)NC1(C(=O)NC(c2ccccc2)c2ccccc2)CCCCC1 [Compound 11] | > 500 µM | – | – | >10 | –
O=C(NC(Cc1ccccc1)C(=O)NCc1ccccn1)OCc1ccccc1 (stereo not drawn) [Compound 12] | 428 ± 11 µM | – | not a significant inhibitory effect | 21 | –
COc1ccc(NC2=NC(=O)CC(C(=O)NCc3ccccc3)N2)cc1 (stereo not drawn) [Compound 13] | > 500 µM | – | – | >10 | –
CCN1CCN(C(C(=O)O)c2c[nH]c3ccc(NC(=O)CCC(=O)O)cc23)CC1 (stereo not drawn) [Compound 14] | > 500 µM | – | – | >10 | –
CCOC(=O)C1=C(CN2CCCN(C(=O)OC(C)(C)C)CC2)NC(=O)NC1c1ccc(C)cc1 (stereo not drawn) [Compound 15] | 113 ± 3 µM | – | – | 8 | –
COC(=O)C1=C(CN2CCN(C(=O)OC(C)(C)C)CC2)NC(=O)NC1c1ccccc1 (stereo not drawn) [Compound 16] | 401 ± 52 µM | – | – | 10 | –
CCOC(=O)C1=C(CN2CCC(NC(=O)OC(C)(C)C)CC2)NC(=O)NC1c1ccccc1 (stereo not drawn) [Compound 17] | 228 ± 6 µM | – | – | >5 | –
COc1ccc(C(=O)COC(=O)C(Cc2ccccc2)N2C(=O)C3C4C=CC(C4)C3C2=O)cc1 (stereo not drawn) [Compound 18] | > 500 µM | – | – | >10 | –

Compound | CC50 at 72 h [2] | IC50 (SARS-CoV-2 M^pro) | Inhibitory effect on M^pro catalytic activity at fixed concentration (SARS-CoV-2 M^pro) | SI, Selectivity Index (SARS-CoV-2 [3]) | other results
CCc1cc(Br)cc2c(C(=O)N3CCOCC3)cc(-c3ccc(OC)cc3)nc12 [Compound 19] | 228 ± 69 µM | – | not a significant inhibitory effect | 32 | –
COc1ccc(C(=O)CN(C(=O)c2ccc(Cl)cc2)N2C(=O)CCC2=O)cc1 [Compound 20] | > 500 µM | – | – | >10 | –
COc1ccc2c(c1)c(CC(=O)O)c(C)n2C(=O)c1ccc(Cl)cc1 [Compound 21] | > 500 µM | – | – | >10 | –
Nc1ncnc2c1ncn2[C@@H]1O[C@H](CSCC[C@H](N)C(=O)O)[C@@H](O)[C@H]1O [Compound 22] | > 500 µM | – | – | >10 | –
COc1ccc(Cc2nn3c([C@@H](CCCc4ccccc4)[C@@H](C)O)nc(C)c3c(=O)[nH]2)cc1OC [Compound 23] | – | – | not a significant inhibitory effect | – | –
COc1ccc(-c2ocnc2C(=O)NCCCn2cncn2)cc1Cl [Compound 24] | > 500 µM | – | not a significant inhibitory effect | – | –
NC(=O)c1c(NC(=O)c2cnn3c(C(F)(F)F)cc(-c4ccccc4)nc23)sc2c1CCCC2 [Compound 25] | > 250 µM | 26.6 ± 7.4 µM | exerted an inhibitory effect | >31 | CC50 at 72 h [4]: > 250 µM; EC50 (HCoV-229E): > 25 µM; Activity towards HCoV-OC43 (HCoV-OC43): retained activity; SARS-CoV-2 titers in supernatants of infected and treated Calu-3 cells (SARS-CoV-2 [5]): significantly reduced SARS-CoV-2 titers
COc1ccc(-c2cc(C(F)(F)F)n3ncc(C(=O)Nc4sc5c(c4C(N)=O)CCCC5)c3n2)cc1 [Compound 26] | 68.9 ± 10 µM | 57.6 ± 4.1 µM | exerted an inhibitory effect | 7 | –
Cc1ccc(-c2cc(C(F)(F)F)n3ncc(C(=O)Nc4sc5c(c4C(N)=O)CCCC5)c3n2)cc1 [Compound 27] | 67.9 ± 16.5 µM | 46.2 ± 7.7 µM | exerted an inhibitory effect | 5 | –
NC(=O)c1c(NC(=O)c2cnn3c(C(F)F)cc(-c4ccccc4)nc23)sc2c1CCCC2 [Compound 28] | > 250 µM | – | – | >5 | –
CCC(C)NC(=O)c1ccccc1NC(=O)c1cccc(S(=O)(=O)Nc2ccccc2)c1 (stereo not drawn) [Compound 29] | > 500 µM | – | not a significant inhibitory effect | – | CC50 at 72 h [4]: > 250 µM; Activity towards HCoV-229E (HCoV-229E): retained activity; EC50 (HCoV-229E): 15.7 ± 4.8 µM; Activity towards HCoV-OC43 (HCoV-OC43): retained activity
CCC(C)NC(=O)c1ccccc1NC(=O)c1ccc(C)c(S(=O)(=O)Nc2cccc(NC(=O)c3ccccc3)c2)c1 (stereo not drawn) [Compound 30] | > 500 µM | – | – | >10 | –
COc1ccc(C(=O)Nc2ccccc2C(=O)N[C@H](C(=O)Nc2ccccc2)C(C)C)cc1 [Compound 31, (S)-2-(4-Methoxybenzamido)-N-(3-methyl-1-oxo-1-(phenylamino)butan-2-yl)benzamide] | > 250 µM | 43.7 ± 9.2 µM | – | >5 | Fold increase of inhibitory potency against M^pro compared to parental hit 7 (SARS-CoV-2 M^pro; compared to hit 7): > 2 fold
COc1ccc(C(=O)Nc2ccccc2C(=O)N[C@H](C(=O)N[C@H](CO)C(C)C)C(C)C)cc1 [Compound 32, N-((S)-1-(((S)-1-Hydroxy-3-methylbutan-2-yl)amino)-3-methyl-1-oxobutan-2-yl)-2-(4-methoxybenzamido)benzamide] | > 250 µM | > 200 µM | – | >8 | –
COc1ccc(C(=O)Nc2ccccc2C(=O)N[C@H](C(=O)NC2CCCCC2)C(C)C)cc1 [Compound 33, (S)-N-(1-(Cyclohexylamino)-3-methyl-1-oxobutan-2-yl)-2-(4-methoxybenzamido)benzamide] | > 250 µM | 26.7 ± 7.3 µM | – | >7 | –
CCNC(=O)[C@@H](NC(=O)c1ccccc1NC(=O)c1ccc(OC)cc1)C(C)C [Compound 34, (S)-N-(1-(Ethylamino)-3-methyl-1-oxobutan-2-yl)-2-(4-methoxybenzamido)benzamide] | > 250 µM | – | – | >5 | –
CC(C)[C@H](NC(=O)c1ccccc1NC(=O)c1ccc(O)cc1)C(=O)N[C@H](CO)C(C)C [Compound 35, N-((S)-1-(((S)-1-Hydroxy-3-methylbutan-2-yl)amino)-3-methyl-1-oxobutan-2-yl)-2-(4-hydroxybenzamido)benzamide] | > 250 µM | 19 ± 8.4 µM | – | >10 | –
CCC(CC)COC(=O)[C@H](C)N[P@](=O)(OC[C@H]1O[C@@](C#N)(c2ccc3c(N)ncnn23)[C@H](O)[C@@H]1O)Oc1ccccc1 [RMV, remdesivir, reference compound] | > 250 µM | – | – | – | EC50 (HCoV-229E): 0.09 ± 0.03 µM
